Where two headings read alike, the source gives them in different places.
Key:
[1] = tested on: ovarian cancer cells (PA-1); assay: Cancer cell line growth inhibition (SRB assay); format: cell-based; details: read-out: Cancer Cell Line GI50 Range PA-1
TICs (Colon 12) = assay: Colon tumor-initiating cell growth inhibition (Alamar Blue); format: cell-based; details: 9 days, read-out: Tumor Initiating Cell GI50 Range Colon 12
[2] = tested on: colon cancer cells (HCT116); assay: Cancer cell line growth inhibition (SRB assay); format: cell-based; details: read-out: Cancer Cell Line GI50 Range HCT116
human TTK = target: T1, human TTK (Homo sapiens, UniProt P33981); assay: TTK inhibition assay (indirect ELISA); format: biochemical
T1 construct: amino terminal GST fusion of full length human TTK; purchased Invitrogen
T1 sequence (P33981 1-857): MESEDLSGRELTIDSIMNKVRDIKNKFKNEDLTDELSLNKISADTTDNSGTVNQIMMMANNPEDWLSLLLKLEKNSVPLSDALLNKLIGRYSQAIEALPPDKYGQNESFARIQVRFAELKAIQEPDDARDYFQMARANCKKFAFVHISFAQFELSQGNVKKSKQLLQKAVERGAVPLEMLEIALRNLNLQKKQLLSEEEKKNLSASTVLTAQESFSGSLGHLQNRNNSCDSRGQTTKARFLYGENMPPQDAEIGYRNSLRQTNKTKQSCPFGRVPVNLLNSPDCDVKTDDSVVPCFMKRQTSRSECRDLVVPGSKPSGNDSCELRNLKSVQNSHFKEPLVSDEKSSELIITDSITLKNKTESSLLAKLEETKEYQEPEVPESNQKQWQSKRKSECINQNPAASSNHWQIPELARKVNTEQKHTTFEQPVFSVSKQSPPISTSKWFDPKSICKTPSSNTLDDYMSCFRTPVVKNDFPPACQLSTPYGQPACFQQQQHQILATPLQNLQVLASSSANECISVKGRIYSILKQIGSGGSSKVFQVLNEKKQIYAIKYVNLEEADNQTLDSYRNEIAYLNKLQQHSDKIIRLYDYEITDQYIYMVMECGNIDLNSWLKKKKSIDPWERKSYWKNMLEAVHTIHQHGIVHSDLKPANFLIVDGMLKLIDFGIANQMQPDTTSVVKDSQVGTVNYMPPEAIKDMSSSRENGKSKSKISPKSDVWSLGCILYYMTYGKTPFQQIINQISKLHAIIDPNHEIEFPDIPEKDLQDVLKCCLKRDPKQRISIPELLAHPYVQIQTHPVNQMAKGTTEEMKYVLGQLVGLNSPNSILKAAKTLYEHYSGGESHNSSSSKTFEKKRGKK

TICs (Ovarian 2393A) = assay: Ovarian tumor-initiating cell growth inhibition (Alamar Blue); format: cell-based; details: 6 days, read-out: Tumor Initiating Cell GI50 Range Ovarain 2393A
[3] = Homo sapiens, HCT-116, HCT116 colon cancer cells, SRB assay
[4] = 144 h, ovarian TICs, Alamar Blue
[5] = PA-1 ovarian cancer cells, SRB assay

IC50 (human TTK; read-out: TTK IC50 Range) [nM]	GI50 (TICs (Colon 12); 216 h, colon TICs, Alamar Blue) [nM]	GI50 [2, 3] [nM]	GI50 (TICs (Ovarian 2393A); [4]) [nM]	SMILES	GI50 ([1]; Homo sapiens, PA-1) [nM]	GI50 (TICs (Colon 12); 216 h, Colon 12 TICs) [nM]	GI50 ([2]; Homo sapiens, HCT-116) [nM]	GI50 (TICs (Ovarian 2393A); 144 h, Ovarian 2393A TICs) [nM]	other results
< 100				O=C(NC(c1ccccn1)C1CCCC1)c1ccc2[nH]nc(-c3ccc(N4CCN(C5COC5)CC4)cc3)c2c1 (centres unmarked) [Example A402, N-(cyclopentyl(pyridin-2-yl)methyl)-3-(4-(4-(oxetan-3-yl)piperazin-1-yl)phenyl)-1H-indazole-5-carboxamide]	< 100	< 100	< 100	< 100	
< 100	< 100	< 100	100 to 500	CN1CCC(Oc2ccc(-c3n[nH]c4ccc(C(=O)NCC5(N6CCOCC6)CCCCC5)cc34)cc2)CC1 [Example A449, 3-(4-((1-methylpiperidin-4-yl)oxy)phenyl)-N-((1-morpholinocyclohexyl)methyl)-1H-indazole-5-carboxamide]					
< 100	100 to 500	< 100	100 to 500	COCCN1CCC(Oc2ccc(-c3n[nH]c4ccc(C(=O)N[C@H](c5cccs5)C5CC5)cc34)cc2)CC1 [Example A163]					GI50 [1, 5]: < 100 nM
< 100	< 100	< 100	100 to 500	CN1CCN(c2ccc(-c3n[nH]c4ccc(C(=O)NCC5(N6CCOCC6)CCCCC5)cc34)cc2)CC1 [Example A453, 3-(4-(4-methylpiperazin-1-yl)phenyl)-N-((1-morpholinocyclohexyl)methyl)-1H-indazole-5-carboxamide]					GI50 [1, 5]: < 100 nM
< 100				C[C@@H](O)CN1CCC(Oc2ccc(-c3n[nH]c4ccc(C(=O)N[C@H](c5ccccn5)C5CC5)cc34)cc2)CC1 [Example A221, N-((S)-cyclopropyl(pyridin-2-yl)methyl)-3-(4-((1-((R)-2-hydroxypropyl)piperidin-4-yl)oxy)phenyl)-1H-indazole-5-carboxamide]	< 100	100 to 500	< 100	100 to 500	
				O=C(N[C@H](c1ccccn1)C1CCCC1)c1ccc2[nH]nc(-c3ccc(N4[C@@H]5CCC[C@H]4COC5)cc3)c2c1 [Example A418, 3-(4-((1R,5S)-3-oxa-9-azabicyclo[3.3.1]nonan-9-yl)phenyl)-N-((S)-cyclopentyl(pyridin-2-yl)methyl)-1H-indazole-5-carboxamide]	< 100	< 100	< 100	< 100	IC50 (human TTK): < 100 nM
				O=C(N[C@H](c1ccccn1)C1CC1)c1ccc2[nH]nc(-c3ccc(N4C5CCC4CC(O)C5)cc3)c2c1 (stereo partly drawn) [Example A361, N-((S)-cyclopropyl(pyridin-2-yl)methyl)-3-(4-((1R,3S,5S)-3-hydroxy-8-azabicyclo[3.2.1]octan-8-yl)phenyl)-1H-indazole-5-carboxamide]	< 100	< 100	< 100	< 100	IC50 (human TTK): < 100 nM
< 100				CC(C)(O)CN1CCC(Oc2ccc(-c3n[nH]c4ccc(C(=O)N[C@H](c5ccccn5)C5CC5)cc34)cc2)CC1 [Example A217, (S)-N-(cyclopropyl(pyridin-2-yl)methyl)-3-(4-((1-(2-hydroxy-2-methylpropyl)piperidin-4-yl)oxy)phenyl)-1H-indazole-5-carboxamide]	< 100	100 to 500	< 100	100 to 500	
< 100	< 100	< 100	< 100	O=C(NCC1(N2CCOCC2)CCCCC1)c1ccc2[nH]nc(-c3ccc(N4CCOCC4)cc3)c2c1 [Example A447, N-((1-morpholinocyclohexyl)methyl)-3-(4-morpholinophenyl)-1H-indazole-5-carboxamide]					GI50 [1, 5]: < 100 nM
< 100				CN1CCC(Nc2ccc(-c3n[nH]c4ccc(NC(=O)C(c5ccsc5)N5CCCC5)cc34)cc2)CC1 (centres unmarked) [Example A25]					GI50 (TICs (Colon 12); colon TICs, Alamar Blue): 100 to 500 nM; GI50 ([2]; HCT116 colon cancer cells, SRB assay): < 100 nM; GI50 (TICs (Ovarian 2393A); ovarian TICs, Alamar Blue): < 100 nM
	100 to 500	< 100	> 500	C[C@@H](NC(=O)c1ccc2[nH]nc(-c3ccc(OC4CCN(C)CC4)cc3)c2c1)c1ccccc1F [Example A134, (R)-N-(1-(2-fluorophenyl)ethyl)-3-(4-((1-methylpiperidin-4-yl)oxy)phenyl)-1H-indazole-5-carboxamide]					GI50 [1, 5]: 100 to 500 nM
	< 100	< 100	< 100	CC(C)C(NC(=O)c1ccc2[nH]nc(-c3ccc(OC4CCN(C)CC4)cc3)c2c1)c1ccccc1Cl (centres unmarked) [Example A144, N-(1-(2-chlorophenyl)-2-methylpropyl)-3-(4-((1-methylpiperidin-4-yl)oxy)phenyl)-1H-indazole-5-carboxamide]					GI50 [1, 5]: < 100 nM

SMILES	IC50 (human TTK; read-out: TTK IC50 Range) [nM]	GI50 (TICs (Colon 12); 216 h, colon TICs, Alamar Blue) [nM]	GI50 [2, 3] [nM]	GI50 (TICs (Ovarian 2393A); [4]) [nM]	GI50 ([1]; Homo sapiens, PA-1) [nM]	GI50 (TICs (Colon 12); 216 h, Colon 12 TICs) [nM]	GI50 ([2]; Homo sapiens, HCT-116) [nM]	GI50 (TICs (Ovarian 2393A); 144 h, Ovarian 2393A TICs) [nM]	other results
O=C(N[C@H](c1ccccn1)C1CC1)c1ccc2[nH]nc(-c3ccc(OC4CC5CCC(C4)N5)cc3)c2c1 (stereo partly drawn) [Example A374, 3-(4-((1R,3R,5S)-8-azabicyclo[3.2.1]octan-3-yloxy)phenyl)-N-((S)-cyclopropyl(pyridin-2-yl)methyl)-1H-indazole-5-carboxamide]	< 100				< 100	> 500	< 100	100 to 500	
O=CN1[C@@H]2CC[C@H]1C[C@@H](Oc1ccc(-c3n[nH]c4ccc(C(=O)NC(c5ccsc5)C5CCC5)cc34)cc1)C2 (stereo partly drawn) [Example A329, N-(cyclobutyl(thiophen-3-yl)methyl)-3-(4-(((1R,3R,5S)-8-formyl-8-azabicyclo[3.2.1]octan-3-yl)oxy)phenyl)-1H-indazole-5-carboxamide]	< 100				< 100	< 100	< 100	< 100	
O=C(N[C@H](c1ccccn1)C1CC1)c1ccc2[nH]nc(-c3ccc(N4C5CCC4CC(O)C5)cc3)c2c1 (stereo partly drawn) [Example A307, N-((S)-cyclopropyl(pyridin-2-yl)methyl)-3-(4-((1R,3R,5S)-3-hydroxy-8-azabicyclo[3.2.1]octan-8-yl)phenyl)-1H-indazole-5-carboxamide]	< 100								GI50 ([1]; PA-1): < 100 nM; GI50 (TICs (Colon 12); Colon 12 TICs): 100 to 500 nM; GI50 ([2]; HCT116): < 100 nM; GI50 (TICs (Ovarian 2393A); Ovarian 2393A TICs): 100 to 500 nM
O=C(N[C@H](c1ccccc1Cl)C1CC1)c1ccc2[nH]nc(-c3ccc(OC4CC5CCC(C4)N5C4COC4)cc3)c2c1 (stereo partly drawn) [Example A349, N-((S)-(2-chlorophenyl)(cyclopropyl)methyl)-3-(4-(((1R,3R,5S)-8-(oxetan-3-yl)-8-azabicyclo[3.2.1]octan-3-yl)oxy)phenyl)-1H-indazole-5-carboxamide]	< 100				< 100	< 100	< 100	< 100	
O=CN1C2CCC1CC(Oc1ccc(-c3n[nH]c4ccc(C(=O)N[C@H](c5ccccn5)C5CC5)cc34)cc1)C2 (stereo partly drawn) [Example A322, N-((S)-cyclopropyl(pyridin-2-yl)methyl)-3-(4-(((1R,3R,5S)-8-formyl-8-azabicyclo[3.2.1]octan-3-yl)oxy)phenyl)-1H-indazole-5-carboxamide]	< 100				< 100	< 100	< 100	< 100	
O=C(N[C@@H](c1ccccn1)C1CC1)c1ccc2[nH]nc(-c3ccc(N4[C@@H]5CC[C@H]4COC5)cc3)c2c1 [Example A422, 3-(4-((1R,5S)-3-oxa-8-azabicyclo[3.2.1]octan-8-yl)phenyl)-N-((R)-cyclopropyl(pyridin-2-yl)methyl)-1H-indazole-5-carboxamide]	< 100				< 100	< 100	< 100	100 to 500	
